The nature of the data set: FaSSIF solubility assay. It is filed as physicochemical. The note with it: thermodynamic from solid, FaSSIF buffer, 37° C. On the procedure: Approximately 5-10 mg of accurately weighed test compound was transferred to a glass vial containing 4 mL of a FaSSIF buffer (PharesAG, prepared according to manufactures protocol). The vial was then rotated at 37° C. for 24 h. After equilibration time had been met, the test solution was centrifuge filtered through a 0.45 um PTFE membrane filter. The filtrate was then analyzed by HPLC/UV against a set of standard injections to determine compound concentration.
Find below in Table 9 data for compared compounds (See WO 2011/127106 A1).

Values after ≈ are worked out from the molar mass of the structure shown.

Drawing on patent US9174965B2, “Pyrimidinylpiperidinyloxypyridone analogues as GPR119 modulators” (BRISTOL-MYERS SQUIBB COMPANY, priority 2012, dated 2015), this text covers solubility for 1 compound.

Consider `Cc1nc(-n2cc(Cl)c(OC3CCN(c4ncc(Cl)cn4)CC3)cc2=O)ccc1N1CC[C@@H](O)C1=O` [Example 4, (R)-5-chloro-4-((1-(5-chloropyrimidin-2-yl)piperidin-4-yl)oxy)-5′-(3-hydroxy-2-oxopyrrolidin-1-yl)-6′-methyl-2H-[1,2′-bipyridin]-2-one], for which the concentration in solution (solubility at 24 h) was 11 µg/mL (≈ 20.7 µM).
